Test results: ChEMBL document CHEMBL6078630, “Design, synthesis, and bioactivity investigation of novel cyclic lipopeptide antibiotics targeting top-priority multidrug-resistant gram-negative bacteria” (Eur J Med Chem, 2024)
≈ marks a conversion by molar mass, not a printed value. Bridge positions count the residues as written; N and C are the ends. Square brackets hold non-standard residues; d marks the D form. Peptide text beside a SMILES is read from it. * marks the point of attachment. Octanoyl = CCCCCCCC(=O)*; Dab = NCC[C@H](N)C(=O)O

What was measured:
Acinetobacter baumannii [1] = assay: Antibacterial activity against Acinetobacter baumannii NCTC 13304 (OXA-27) assessed as inhibition of bacterial growth incubated for 16 to 20 hrs by CLSI protocol based broth microdilution method; assay type: functional; conditions: time 16-20 hrs
Escherichia coli [2] = assay: Antibacterial activity against Escherichia coli ATCC BAA-2523 assessed as inhibition of bacterial growth incubated for 16 to 20 hrs by CLSI protocol based broth microdilution method; assay type: functional; conditions: time 16-20 hrs
Klebsiella pneumoniae [3] = assay: Antibacterial activity against carbapenem-resistant Klebsiella pneumoniae clinical isolate KPN+19-15 assessed as inhibition of bacterial growth incubated for 16 to 20 hrs by CLSI protocol based broth microdilution method; assay type: functional; conditions: time 16-20 hrs
Klebsiella pneumoniae [4] = assay: Antibacterial activity against carbapenem-resistant Klebsiella pneumoniae ATCC BAA-1705 assessed as inhibition of bacterial growth incubated for 16 to 20 hrs by CLSI protocol based broth microdilution method; assay type: functional; conditions: time 16-20 hrs
Pseudomonas aeruginosa [5] = assay: Antibacterial activity against carbapenem-resistant Pseudomonas aeruginosa clinical isolate 19-3 assessed as inhibition of bacterial growth incubated for 16 to 20 hrs by CLSI protocol based broth microdilution method; assay type: functional; conditions: time 16-20 hrs
[6] = Renal cytotoxicity against HK-2 cells incubated for 72 hrs by CCK8 assay; assay type: toxicity, cell-based; conditions: human
Acinetobacter baumannii [7] = assay: Antibacterial activity against carbapenem-sensitive Acinetobacter baumannii clinical isolate 19-1 assessed as inhibition of bacterial growth incubated for 16 to 20 hrs by CLSI protocol based broth microdilution method; assay type: functional; conditions: time 16-20 hrs
Escherichia coli [8] = assay: Antibacterial activity against carbapenem-resistant Escherichia coli ATCC BAA-2340 assessed as inhibition of bacterial growth incubated for 16 to 20 hrs by CLSI protocol based broth microdilution method; assay type: functional; conditions: time 16-20 hrs
Pseudomonas aeruginosa [9] = assay: Antibacterial activity against Pseudomonas aeruginosa ATCC 27853 assessed as inhibition of bacterial growth incubated for 16 to 20 hrs by CLSI protocol based broth microdilution method; assay type: functional; conditions: time 16-20 hrs

SMILES	MIC (Acinetobacter baumannii [1])	MIC (Escherichia coli [2])	MIC (Klebsiella pneumoniae [3])	MIC (Klebsiella pneumoniae [4])	MIC (Pseudomonas aeruginosa [5])	IC50 at 72 h [6]	MIC (Acinetobacter baumannii [7])	MIC (Escherichia coli [8])	MIC (Pseudomonas aeruginosa [9])
CC(C)CCCCC(=O)N[C@@H](CCN)C(=O)N[C@H](C(=O)N[C@@H](CCCCN)C(=O)N[C@H]1CCNC(=O)[C@H]([C@@H](C)O)NC(=O)[C@H](CCN)NC(=O)[C@H](CCN)NC(=O)[C@H]([C@@H](C)O)NC(=O)[C@@H](Cc2ccccc2)NC(=O)[C@H](CCN)NC1=O)[C@@H](C)O	1 µg/mL (≈ 0.83 µM)	0.25 µg/mL (≈ 0.207 µM)	0.25 µg/mL (≈ 0.207 µM)	0.25 µg/mL (≈ 0.207 µM)	4 µg/mL (≈ 3.32 µM)	> 500 µg/mL	2 µg/mL (≈ 1.66 µM)	0.25 µg/mL (≈ 0.207 µM)	> 64 µg/mL
CC(C)C[C@@H]1NC(=O)[C@H](CCN)NC(=O)[C@@H](NC(=O)[C@@H](CO)NC(=O)[C@@H](NC(=O)[C@H](CCN)NC(=O)CCCCCCC(=O)O)[C@@H](C)O)CCNC(=O)[C@H]([C@@H](C)O)NC(=O)[C@H](CCN)NC(=O)[C@H](CCN)NC(=O)[C@H]([C@@H](C)O)NC1=O	0.25 µg/mL (≈ 0.215 µM)	0.125 µg/mL (≈ 0.108 µM)	0.25 µg/mL (≈ 0.215 µM)	0.5 µg/mL (≈ 0.431 µM)	8 µg/mL (≈ 6.89 µM)	> 500 µg/mL	0.5 µg/mL (≈ 0.431 µM)	0.125 µg/mL (≈ 0.108 µM)	8 µg/mL (≈ 6.89 µM)
CC(C)CCCCC(=O)N[C@@H](CCN)C(=O)N[C@H](C(=O)N[C@H](CO)C(=O)N[C@H]1CCNC(=O)[C@H]([C@@H](C)O)NC(=O)[C@H](CCN)NC(=O)[C@H](CCN)NC(=O)[C@H](CC(C)C)NC(=O)[C@H](Cc2ccccc2)NC(=O)[C@H](CCN)NC1=O)[C@@H](C)O	≤ 0.03 µg/mL	0.06 µg/mL (≈ 0.051 µM)	≤ 0.03 µg/mL	0.125 µg/mL (≈ 0.106 µM)	2 µg/mL (≈ 1.7 µM)	> 500 µg/mL	≤ 0.03 µg/mL	≤ 0.03 µg/mL	1 µg/mL (≈ 0.85 µM)
CCCCCCCC(=O)N[C@@H](CCN)C(=O)N[C@H](C(=O)N[C@@H](CCN)C(=O)N[C@H]1CCNC(=O)[C@H]([C@@H](C)O)NC(=O)[C@H](CCN)NC(=O)[C@H](CCN)NC(=O)[C@H]([C@@H](C)O)NC(=O)[C@@H](CCC)NC(=O)[C@H](CCN)NC1=O)[C@@H](C)O [listing 1 of 2 here]						> 500 µg/mL			
CCCCCCCC(=O)N[C@@H](CCN)C(=O)N[C@H](C(=O)N[C@@H](CCN)C(=O)N[C@H]1CCNC(=O)[C@H]([C@@H](C)O)NC(=O)[C@H](CCN)NC(=O)[C@H](CCN)NC(=O)[C@H]([C@@H](C)O)NC(=O)[C@@H](CCC)NC(=O)[C@H](CCN)NC1=O)[C@@H](C)O [listing 2 of 2 here]	4 µg/mL (≈ 3.54 µM)	0.25 µg/mL (≈ 0.221 µM)	0.5 µg/mL (≈ 0.443 µM)	2 µg/mL (≈ 1.77 µM)	1 µg/mL (≈ 0.885 µM)		4 µg/mL (≈ 3.54 µM)	0.5 µg/mL (≈ 0.443 µM)	1 µg/mL (≈ 0.885 µM)
CC(C)CCCCC(=O)N[C@@H](CCN)C(=O)N[C@H](C(=O)N[C@H](CCCCN)C(=O)N[C@H]1CCNC(=O)[C@H]([C@@H](C)O)NC(=O)[C@H](CCN)NC(=O)[C@H](CCN)NC(=O)[C@H]([C@@H](C)O)NC(=O)[C@@H](Cc2ccccc2)NC(=O)[C@H](CCN)NC1=O)[C@@H](C)O	0.5 µg/mL (≈ 0.415 µM)	0.125 µg/mL (≈ 0.104 µM)	0.25 µg/mL (≈ 0.207 µM)	0.125 µg/mL (≈ 0.104 µM)	4 µg/mL (≈ 3.32 µM)	> 500 µg/mL	0.5 µg/mL (≈ 0.415 µM)	1 µg/mL (≈ 0.83 µM)	32 µg/mL (≈ 26.5 µM)
CC(C)CCCCC(=O)N[C@@H](CCN)C(=O)N[C@H](C(=O)N[C@@H](CO)C(=O)N[C@H]1CCNC(=O)[C@H]([C@@H](C)O)NC(=O)[C@H](CCN)NC(=O)[C@H](CCN)NC(=O)[C@H]([C@@H](C)O)NC(=O)[C@@H](CC(C)C)NC(=O)[C@H](CCN)NC1=O)[C@@H](C)O	8 µg/mL (≈ 7.08 µM)	2 µg/mL (≈ 1.77 µM)	4 µg/mL (≈ 3.54 µM)	4 µg/mL (≈ 3.54 µM)	64 µg/mL (≈ 56.6 µM)	> 500 µg/mL	8 µg/mL (≈ 7.08 µM)	2 µg/mL (≈ 1.77 µM)	> 64 µg/mL
C[C@@H](O)[C@@H]1NC(=O)[C@H](CCN)NC(=O)[C@H](CCN)NC(=O)[C@H]([C@@H](C)O)NC(=O)[C@H](Cc2ccccc2)NC(=O)[C@H](CCN)NC(=O)[C@@H](NC(=O)[C@@H](CO)NC(=O)[C@@H](NC(=O)[C@H](CCN)NC(=O)CCCCCCC(=O)O)[C@@H](C)O)CCNC1=O	≤ 0.03 µg/mL	≤ 0.03 µg/mL	≤ 0.03 µg/mL	0.06 µg/mL (≈ 0.0502 µM)	4 µg/mL (≈ 3.35 µM)	> 500 µg/mL	0.06 µg/mL (≈ 0.0502 µM)	≤ 0.03 µg/mL	4 µg/mL (≈ 3.35 µM)
CCCCCCCC(=O)N[C@@H](CCN)C(=O)N[C@H](C(=O)N[C@@H](CCN)C(=O)N[C@H]1CCNC(=O)[C@H]([C@@H](C)O)NC(=O)[C@H](CCN)NC(=O)[C@H](CCN)NC(=O)[C@H]([C@@H](C)O)NC(=O)[C@@H](Cc2ccccc2)NC(=O)[C@H](CCN)NC1=O)[C@@H](C)O (Octanoyl-[Dab]T[Dab][Dab][Dab][dF]T[Dab][Dab]T; lactam 4-C)						> 500 µg/mL			
